Consider 17 compounds from patent publication US12570648B2, “6,7-dihydro-5H-pyrido[2,3-c]pyridazine derivatives and related compounds as Bcl-xL protein inhibitors and pro-apoptotic agents for treating cancer” (LES LABORATOIRES SERVIER, priority 2019, dated 2026).

Test [1] has as its target His-His-(EK)-hsBCLXL(2-197)[N197C] (Homo sapiens (Human), UniProt Q07817, N197C). The test is described as follows: Fluorescence quenching assay. It counts as binding. The settings on record: 1 nM Cy5-labelled protein, 400 nM PUMA peptide, 2 hours at 23° C.; KI determined from IC50. The text has this:
Fluorescence quenching assay measures the change in fluorescence intensity of C-terminally Cy5-labelled BCL-xL protein, His-His-(EK)-hsBCLXL(2-197)[N197C] (UniProtKB®
which is linked in C-terminal region to the amino acid X which corresponds to a cysteine labelled on the sulfur with Sulfo-Cyanine5 from Lumiprobe GmbH catalogue number 13380, upon binding of a C-terminally labelled peptide derived from PUMA (UniProtKB® primary accession number Q9BXH1) having an aminoacid sequence (SEQ ID:04): [[…]] which is linked in C-terminal region to the amino acid X′ where X′ is cysteine labelled on the sulfur with TQ5WS from AAT Bioquest catalogue number 2079.
The addition of a compound which binds competitively to the same site as the peptide will result in an increase in the fluorescence intensity of the protein due to displacement of the fluorescence quencher.
An 11-point serial dilution of each compound was prepared in DMSO, the final buffer conditions were 10 mM 4-(2-hydroxyethyl)-1-piperazineethanesulfonic acid [HEPES], 150 mM NaCl, 0.05% Tween 20, pH 7.4 and 5% DMSO. The final protein concentration in the assay was 1 nM with the peptide present at 400 nM. The experiments were incubated for 2 hours at 23° C. before fluorescence intensity was measured on a Biotek SynergyNeo plate reader (Excitation 620 nm, emission 680 nm). […] The K1 values were determined from the IC50 values according to Cer et al, Nucleic Acids Res, 2009, Jul. 1; 37 (WebServer issue): W441-W445.

In another test the test system is MOLT-4 cells. Put plainly: MOLT-4 cell viability using MTT assay. It counts as cell-based. The settings on record: 48 h exposure. The protocol: MTT colorimetric assay is based on the mitochondrial reduction of tetrazolium salt by living cells.
Cells were cultured at 37° C. in a humidified atmosphere containing 5% CO2. […] At the end of incubation time, 15 μL of MTT solution (5 mg/ml) were added per well and the cells were incubated for another 4 h. […] IC50s were calculated using standard four-parametric curve fitting.
Background: Tetrazolium assays rely on reduction of a dye to a coloured formazan, in cell work by metabolically active cells.

His-His-(EK)-hsBCLXL(2-197)[N197C], sequence (Q07817 2-197 N197C): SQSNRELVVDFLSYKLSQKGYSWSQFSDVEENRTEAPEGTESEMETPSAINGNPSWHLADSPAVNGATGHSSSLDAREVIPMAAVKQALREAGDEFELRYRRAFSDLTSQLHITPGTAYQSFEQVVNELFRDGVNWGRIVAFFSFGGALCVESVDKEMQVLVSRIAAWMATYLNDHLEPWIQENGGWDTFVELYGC

What is called Ki is a measure of affinity in units of concentration, obtained from inhibition or displacement. The IC50 is the concentration needed to halve the response being measured. As for `Cc1c(Nc2nc3ccccc3s2)nnc2c1CCCN2c1ccc(-c2cnn(CC34CC5(C)CC(C)(C3)CC(OCCNCCC(O)CO)(C5)C4)c2C)c(C(=O)O)n1` (stereo in doubt) [Example 92, 6-{3-[(1,3-benzothiazol-2-yl)amino]-4-methyl-6,7-dihydropyrido[2,3-c]pyridazin-8(5H)-yl}-3-(1-{[3-(2-{[(3S)-3,4-dihydroxybutyl]amino}ethoxy)-5,7-dimethyladamantan-1-yl]methyl}-5-methyl-1H-pyrazol-4-yl)pyridine-2-carboxylic acid], the Ki in test [1] is 0.0017 nM. For the same compound, it took 4.58 nM to reach half-maximal inhibition in the test on MOLT-4 cells (IC50). Regarding `CNCCCc1ccc(OCCCc2sc(N3CCCc4c3nnc(Nc3nc5ccccc5s3)c4C)nc2C(=O)O)c(F)c1` [Example 34, 2-{3-[(1,3-Benzothiazol-2-yl)amino]-4-methyl-5H,6H,7H,8H-pyrido[2,3-c]pyridazin-8-yl}-5-(3-{2-fluoro-4-[3-(methylamino)propyl]phenoxy}propyl)-1,3-thiazole-4-carboxylic acid], the Ki in test [1] came to 0.0019 nM.

Turning to `Cc1c(Nc2nc3ccccc3s2)nnc2c1CCCN2c1nc(C(=O)O)c(CCCOc2ccc(CCCN3CCCC3)cc2F)s1` [Example 69, 2-[3-(1,3-Benzothiazol-2-ylamino)-4-methyl-6,7-dihydro-5H-pyrido[2,3-c]pyridazin-8-yl]-5-[3-[2-fluoro-4-(3-pyrrolidin-1-ylpropyl)phenoxy]propyl]thiazole-4-carboxylic acid], the Ki in test [1] was 0.0037 nM. Also, the IC50 with MOLT-4 cells (Homo sapiens, MOLT-4, 48 h) stood at 4.11 nM. In the case of `Cc1c(Nc2nc3ccccc3s2)nnc2c1CCCN2c1nc(C(=O)O)c(CCCOc2ccc(CCCN3C[C@@H]4[C@H](C3)C4(F)F)cc2F)s1` [Example 72, 2-[3-(1,3-Benzothiazol-2-ylamino)-4-methyl-6,7-dihydro-5H-pyrido[2,3-c]pyridazin-8-yl]-5-[3-[4-[3-[(1R,5S)-6,6-difluoro-3-azabicyclo[3.1.0]hexan-3-yl]propyl]-2-fluoro-phenoxy]propyl]thiazole-4-carboxylic acid], in test [1], the Ki came to 0.08 nM. This compound displayed an IC50 with MOLT-4 cells (Homo sapiens, MOLT-4, 48 h) of 13.9 nM. `Cc1c(Nc2nc3ccccc3s2)nnc2c1CCCN2c1nc(C(=O)O)c(CCCOc2cc3c(cc2F)CN(C)CC3)s1` [Example 74, 2-{3-[(1,3-Benzothiazol-2-yl)amino]-4-methyl-5H,6H,7H,8H-pyrido[2,3-c]pyridazin-8-yl}-5-{3-[(7-fluoro-2-methyl-1,2,3,4-tetrahydroisoquinolin-6-yl)oxy]propyl}-1,3-thiazole-4-carboxylic acid]: in test [1], the Ki stood at 0.01 nM. `CNCCCCc1ccc(OCCCc2sc(N3CCCc4c3nnc(Nc3nc5ccccc5s3)c4C)nc2C(=O)O)c(F)c1` [Example 75, 2-{3-[(1,3-Benzothiazol-2-yl)amino]-4-methyl-5H,6H,7H,8H-pyrido[2,3-c]pyridazin-8-yl}-5-(3-{2-fluoro-4-[4-(methylamino)butyl]phenoxy}propyl)-1,3-thiazole-4-carboxylic acid]: in test [1], the Ki was 0.0033 nM. This compound returned an IC50 in the test on MOLT-4 cells (Homo sapiens, MOLT-4, 48 h) of 9.78 nM. In the case of `Cc1c(Nc2nc3ccccc3s2)nnc2c1CCCN2c1nc(C(=O)O)c(CCCOc2ccc(C#CCNCCN(C)C)cc2F)s1` [Example 76, 2-[3-(1,3-Benzothiazol-2-ylamino)-4-methyl-6,7-dihydro-5H-pyrido[2,3-c]pyridazin-8-yl]-5-[3-[4-[3-[2-(dimethylamino)ethylamino]prop-1-ynyl]-2-fluoro-phenoxy]propyl]thiazole-4-carboxylic acid], in test [1], the Ki stood at 0.0018 nM. Also, the IC50 with MOLT-4 cells (Homo sapiens, MOLT-4, 48 h) worked out at 0.74 nM. The like results for `Cc1c(Nc2nc3ccccc3s2)nnc2c1CCCN2c1nc(C(=O)O)c(CCCOc2ccc(I)cc2F)s1` [Example 77, 2-[3-(1,3-Benzothiazol-2-ylamino)-4-methyl-6,7-dihydro-5H-pyrido[2,3-c]pyridazin-8-yl]-5-[3-(2-fluoro-4-iodo-phenoxy)propyl]thiazole-4-carboxylic acid] were, in that order, 0.17 nM and 226 nM. In the same order, the values of `Cc1c(Nc2nc3ccccc3s2)nnc2c1CCCN2c1nc(C(=O)O)c(CCCOc2cc(C#CCN(C)C)ccc2F)s1` [Example 78, 2-[3-(1,3-Benzothiazol-2-ylamino)-4-methyl-6,7-dihydro-5H-pyrido[2,3-c]pyridazin-8-yl]-5-[3-[5-[3-(dimethylamino)prop-1-ynyl]-2-fluoro-phenoxy]propyl]thiazole-4-carboxylic acid] are 0.023 nM and 2.46 nM. On to `Cc1c(Nc2nc3ccccc3s2)nnc2c1CCCN2c1nc(C(=O)O)c(CCCOc2ccc(C#CCN(CC(C)C)CC(C)C)cc2F)s1` [Example 87, 2-[3-(1,3-Benzothiazol-2-ylamino)-4-methyl-6,7-dihydro-5H-pyrido[2,3-c]pyridazin-8-yl]-5-[3-[4-[3-(diisobutylamino)prop-1-ynyl]-2-fluoro-phenoxy]propyl]thiazole-4-carboxylic acid], for which, in test [1], the Ki was determined as 0.044 nM. With `Cc1c(Nc2nc3ccccc3s2)nnc2c1CCCN2c1ccc(-c2cnn(CC34CC5(C)CC(C)(C3)CC(OCCN(CCCO)CCCO)(C5)C4)c2C)c(C(=O)O)n1` [Example 137, 6-[3-(1,3-benzothiazol-2-ylamino)-4-methyl-6,7-dihydro-5H-pyrido[2,3-c]pyridazin-8-yl]-3-[1-[[3-[2-[bis(3-hydroxypropyl)amino]ethoxy]-5,7-dimethyl-1-adamantyl]methyl]-5-methyl-pyrazol-4-yl]pyridine-2-carboxylic acid], the IC50 in the test with MOLT-4 cells (Homo sapiens, MOLT-4, 48 h) worked out at 5.78 nM.

Compound `Cc1c(Nc2nc3ccccc3s2)nnc2c1CCCN2c1ccc(-c2cnn(CC34CC5(C)CC(C)(C3)CC(OCCNCCCO)(C5)C4)c2C)c(C(=O)O)n1` [Example 138, 6-[3-(1,3-benzothiazol-2-ylamino)-4-methyl-6,7-dihydro-5H-pyrido[2,3-c]pyridazin-8-yl]-3-[1-[[3-[2-(3-hydroxypropylamino)ethoxy]-5,7-dimethyl-1-adamantyl]methyl]-5-methyl-pyrazol-4-yl]pyridine-2-carboxylic acid] displayed an IC50 with MOLT-4 cells (Homo sapiens, MOLT-4, 48 h) of 1.01 nM. For the compound `Cc1c(Nc2nc3cc(O)ccc3s2)nnc2c1CCCN2c1ccc(-c2cnn(CC34CC5(C)CC(C)(C3)CC(OCCN3CCCC3)(C5)C4)c2C)c(C(=O)O)n1` [Example 152, 3-[1-[[3,5-dimethyl-7-(2-pyrrolidin-1-ylethoxy)-1-adamantyl]methyl]-5-methyl-pyrazol-4-yl]-6-[3-[(5-hydroxy-1,3-benzothiazol-2-yl)amino]-4-methyl-6,7-dihydro-5H-pyrido[2,3-c]pyridazin-8-yl]pyridine-2-carboxylic acid], in test [1], the Ki was determined as 0.0017 nM. On to `Cc1c(Nc2nc3ccccc3s2)nnc2c1CCCN2c1ccc(-c2cnn(CC34CC5CC(C3)CC(OCCN(C)C)(C5)C4)c2C)c(C(=O)O)n1` [Example 154, 6-[3-(1,3-benzothiazol-2-ylamino)-4-methyl-6,7-dihydro-5H-pyrido[2,3-c]pyridazin-8-yl]-3-[1-[[3-[2-(dimethylamino)ethoxy]-1-adamantyl]methyl]-5-methyl-pyrazol-4-yl]pyridine-2-carboxylic acid], for which the IC50 in the test on MOLT-4 cells (Homo sapiens, MOLT-4, 48 h) was determined as 0.449 nM. In other words, the sub-nanomolar range. In the test on MOLT-4 cells (Homo sapiens, MOLT-4, 48 h), `Cc1c(Nc2nc3ccccc3s2)nnc2c1CCCN2c1ccc(-c2cnn(CC34CC5CC(C3)CC(OCCN3CCCC3)(C5)C4)c2C)c(C(=O)O)n1` [Example 155, 6-[3-(1,3-benzothiazol-2-ylamino)-4-methyl-6,7-dihydro-5H-pyrido[2,3-c]pyridazin-8-yl]-3-[5-methyl-1-[[3-(2-pyrrolidin-1-ylethoxy)-1-adamantyl]methyl]pyrazol-4-yl]pyridine-2-carboxylic acid] showed an IC50 of 0.543 nM. The same measure, in the same setting: the value for `Cc1c(Nc2nc3ccccc3s2)nnc2c1CCCN2c1ccc(-c2cnn(CC34CC5CC(C3)CC(OCCNCC[C@H](O)CO)(C5)C4)c2C)c(C(=O)O)n1` [Example 160, 6-[3-(1,3-benzothiazol-2-ylamino)-4-methyl-6,7-dihydro-5H-pyrido[2,3-c]pyridazin-8-yl]-3-[1-[[3-[2-[[(3S)-3,4-dihydroxybutyl]amino]ethoxy]-1-adamantyl]methyl]-5-methyl-pyrazol-4-yl]pyridine-2-carboxylic acid] was above 100 nM; that for `COc1ccc2sc(Nc3nnc4c(c3C)CCCN4c3ccc(-c4cnn(CC56CC7(C)CC(C)(C5)CC(OCCN5CCCC5)(C7)C6)c4C)c(C(=O)O)n3)nc2c1` [Example 180, 3-[1-[[3,5-dimethyl-7-(2-pyrrolidin-1-ylethoxy)-1-adamantyl]methyl]-5-methyl-pyrazol-4-yl]-6-[3-[(5-methoxy-1,3-benzothiazol-2-yl)amino]-4-methyl-6,7-dihydro-5H-pyrido[2,3-c]pyridazin-8-yl]pyridine-2-carboxylic acid] was 0.13 nM.
